In patent publication US20210038587A1, “METHODS AND COMPOSITIONS FOR TREATING NON-ERK MAPK PATHWAY INHIBITOR-RESISTANT CANCERS” (BIOMED VALLEY DISCOVERIES, INC., priority 2013, published 2021):
Read-outs that look alike come from different tables or passages of the source.

Columns and labels:
[1] = system: RKO MEK1 (Q56P/+) Clone 1; experiment: Single agent proliferation assay (CellTiter-Glo, 96 h); format: cell-based; details: RKO MEK1 Q56P/+ Cl.1
Procedure: (§1) For assessment of drug sensitivity in cell-line models of acquired resistance, drug sensitivity of dose-escalated A375 cells and isogenic RKO cells was assessed in 96-hour proliferation assays. […] For the A375 assays Alamar blue (ThermoFisher) 10% (v/v) was added and incubated for 4 h, and fluorescent product was then detected using a BMG FLUOstar.
(§2) RKO MEK1 Q56P Isogenic cells were produced by Horizon Discovery (Cambridge, UK; #HD 106-019) using a recombinant AAV-mediated gene targeting strategy. Briefly, rAAV virus was generated following transfection of the appropriate targeting vector and helper vectors in HEK293T cells, purified using an AAV purification kit (Virapur, San Diego, USA) and titrated using qPCR. Parental homozygous RKO cells (homozygous wild type for MEK1) were then infected with rAAV virus and clones that had integrated the selection cassette were identified by G418 selection and expanded. Correctly targeted clones that were heterozygous for knock-in of the MEK1 Q56P point mutation into a single allele were identified by PCR and sequencing.
(§3) Compounds were prepared from DMSO stocks to give the desired final concentrations. The final DMSO concentration was constant at 0.1%. […] CellTiter-Glo® reagent (Promega, Madison, Wis.) was added according to manufacturer's instructions and luminescence detected using the BMG FLUOstar plate reader (BMG Labtech, Ortenberg, Germany).

[2] = system: RKO MEK1 (Q56P/+) Clone 2; experiment: as above; format: cell-based; details: RKO MEK1 Q56P/+ Cl.2
Procedure: as §1, §2, §3

[3] = system: RKO Parental; experiment: as above; format: cell-based
Procedure: as §1, §3

[4] = system: A375 cells; experiment: Proliferation assay (Alamar Blue, 96 h) in parental A375 cells; format: cell-based; details: Homo sapiens, A-375, Parental A375
Procedure: (§6) Proliferation assays were used to track changes in sensitivity to the escalated agent(s) at appropriate time intervals (e.g. each month, although the timing is dependent on adequate cell numbers being available). For proliferation assays, cells were seeded in 96-well plates at 3000 cells per well in drug-free DMEM medium containing 10% FBS and allowed to adhere overnight prior to addition of compound or vehicle control. The final DMSO concentration was constant at 0.1%. Test compounds were incubated with the cells for 96 hours at 37° C. and 5% CO2 in a humidified atmosphere. Alamar Blue 10% (v/v) was then added and incubated for 4 hours and fluorescent product was detected using a BMG FLUOstar plate reader. The average media only background value was deducted and the data analyzed using a 4-parameter logistic equation in GraphPad Prism.
(§7) For assessment of drug sensitivity in cell-line models of acquired resistance, drug sensitivity of dose-escalated A375 cells and isogenic RKO cells was assessed in 96-hour proliferation assays. […] For the A375 assays Alamar blue (ThermoFisher) 10% (v/v) was added and incubated for 4 h, and fluorescent product was then detected using a BMG FLUOstar. The average media only background value was deducted and the data analyzed using a 4-parameter logistic equation in GraphPad Prism.

[5] = system: dose-escalated A375 cells; experiment: Proliferation assay (Alamar Blue, 96 h) in dose-escalated A375 cell lines; format: cell-based, human; details: for Fold Change of IC50: BRAFi- + MEKi-resistant versus parental A375; for IC50: Homo sapiens
From the text: (§8) Cancer cell lines were maintained in cell culture under standard media and serum conditions. For dose escalation studies, A375 cells were split, grown to about 40-60% confluence, and then treated with the initial dose of the specified drug.
(§9) Cells were then allowed to grow until 70-90% confluence and split. Split ratios were kept as “normal” as possible and reasonably consistent between treatments (e.g. a minimum of 50% of the normal split ratio of the parentals). Medium was refreshed every 3-4 days. When cells again reached about 40-60% confluence, the dose was escalated. In the event that the 40-60% window was missed, the cells were split again and dosed once they reached 40-60% confluence. Again, medium was refreshed every 3-4 days.
as §6, §7
(§10) Cells were allowed to grow until ˜70-90% confluence and split; medium was refreshed every 3-4 days. […] This process was repeated as required.

[6] = system: SW48 cell lines heterozygous for knock-in of mutant KRAS; experiment: Proliferation assay in isogenic SW48 lines with knock-in of mutant KRAS (Alamar blue, 96 h); format: cell-based; details: versus control SW48
Procedure: Isogenic SW48 cell lines heterozygous for knock-in of mutant KRAS (De Roock et al 2010, JAMA, 304, 1812-1820) were obtained from Horizon Discovery (Catalogue numbers; HD 103-002, HD 103-006 HD 103-007, HD 103-009, HD 103-010, HD 103-011, HD 103-013). […] Viability was then assessed using Alamar blue.

[7] = system: A375 xenografts; experiment: Antitumor activity in A375 xenografts, monotherapy; format: in vivo, mice
Procedure: (§4) For measurement of antitumor activity in A375 xenografts, xenografts were initiated with A375 cells maintained by serial subcutaneous transplantation in female athymic nude mice. Each test mouse received an A375 tumor fragment (1 mm^3) implanted subcutaneously in the right flank. Once tumors reached target size (80-120 mm^3), animals were randomized into treatment and control groups, and drug treatment was initiated.
Oral temozolomide was administered as a positive reference compound at 75 or 175 mg/kg once daily (QD) for a total of five treatments (QD×5).

[8] = system: upstaged A375 xenografts; experiment: Upstaged A375 xenograft model, BVD-523 in combination with dabrafenib; format: in vivo, mice; details: 50 mg/kg BID; 11 evaluable mice
Procedure: (§5) Combination dosing was stopped on Day 20 to monitor for tumor regrowth. Animals were monitored individually and euthanized when each tumor reached an endpoint volume of 2000 mm^3, or the final day (Day 45), whichever came first, and median time to endpoint (TTE) calculated. The combination was also evaluated in an upstaged A375 model where larger tumors in the range 228-1008 mm^3 were evaluated. Here, mice were randomized into 1 group (Group 1) of 14 and 4 groups (Groups 2-5) of 20. […] Tumors were measured twice weekly. Combination dosing was stopped on Day 42 to monitor for tumor regrowth through study end (Day 60). Treatment outcome was determined from % TGD, defined as the percent increase in median TTE for treated versus control mice, with differences between groups analyzed via log rank survival analysis. […] Mice were also monitored for CR and PR responses. Animals with a CR at the end of the study were additionally classified as TFS.

[9] = system: A375 cells; experiment: Dose escalation study (acquisition of resistance); format: cell-based, human; details: progressively increasing concentrations
From the text: as §8, §9, §10

[10] = system: A375 xenografts; experiment: A375 xenografts, BVD-523 in combination with dabrafenib; format: in vivo, mice; details: 100 mg/kg QD
From the text: as §4, §5

[11] = system: BRAF^V600-mutant melanoma; details: cited from earlier work
[12] = system: patient-derived xenograft (AT052C); experiment: Patient-derived xenograft from vemurafenib-refractory BRAFV600E melanoma; format: in vivo, mice
From the text: Tumor fragments were harvested from host animals and implanted into immune-deficient mice.

[13] = A-375, BRAFi- + MEKi-resistant (dabrafenib and trametinib combination-resistant) A375 population, read-out: IC50
[14] = A-375, Month 1, Dab/Tram-escalated line, read-out: Relative IC50
[15] = A-375, Month 1, Tram/523-escalated line, read-out: Relative IC50
[16] = A-375, Month 2, Dab/Tram-escalated line, read-out: Relative IC50
[17] = A-375, Month 2, Tram/523-escalated line, read-out: Relative IC50
[18] = A-375, Month 3, Dab/Tram-escalated line, read-out: Relative IC50
[19] = A-375, Month 3, Tram/523-escalated line, read-out: Relative IC50

CC(=O)O[C@H]1C(=O)[C@@]2(C)[C@H]([C@H](OC(=O)c3ccccc3)[C@]3(O)C[C@H](OC(=O)[C@H](O)[C@@H](NC(=O)c4ccccc4)c4ccccc4)C(C)=C1C3(C)C)[C@]1(OC(C)=O)CO[C@@H]1C[C@@H]2O [Paclitaxel]
IC50 [1]: 2 nM | IC50 [2]: 2 nM | IC50 [3]: 2 nM | IC50 [4]: 1.9 nM | Fold Change of IC50 [5]: +1.8 fold | IC50 [5, 13]: 3.5 nM | IC50 [5, 14]: 3.5 nM | IC50 [5, 15]: 3.4 nM | IC50 [5, 16]: 4.7 nM | IC50 [5, 17]: 8.9 nM | IC50 [5, 18]: 4.7 nM | IC50 [5, 19]: 8.9 nM | sensitivity after knock-in of KRAS mutant alleles [6]: unaltered

Cn1nnc2c(C(N)=O)ncn2c1=O [temozolomide]
tumor growth inhibition (TGI) ([7]; 75 mg/kg QD×5): 34% | tumor growth inhibition (TGI) ([7]; 175 mg/kg QD×5): 78%

CC(=O)Nc1cccc(-n2c(=O)n(C3CC3)c(=O)c3c(Nc4ccc(I)cc4F)n(C)c(=O)c(C)c32)c1 [Trametinib]
IC50 [1]: 93 nM | IC50 [2]: 80 nM | IC50 [3]: 6 nM | IC50 [4]: 0.2 nM | Fold Change of IC50 [5]: +13.5 fold | Fold Change of IC50 ([5]; listed as trametinib): 13.5 fold | IC50 [5, 13]: 2.7 nM | IC50 [5, 14]: 3.9 nM | IC50 [5, 15]: 2.5 nM | IC50 [5, 16]: 12.6 nM | IC50 [5, 17]: 4.6 nM | IC50 [5, 18]: 2.7 nM | IC50 [5, 19]: 11.2 nM

CC(C)(C)c1nc(-c2cccc(NS(=O)(=O)c3c(F)cccc3F)c2F)c(-c2ccnc(N)n2)s1 [Dabrafenib]
CRs [8]: 5 | PRs [8]: 5 | TFS [8]: 3 | emergence of drug-resistant cell lines [9]: readily obtained | PR [10]: 1 | overall survival ([11]; Long et al. 2015, BRAF^V600E/K): 18.7 months | overall response ([11]; Long et al. 2015): 53% | progression-free survival (PFS) ([11]; Long et al. 2015): 8.8 months | response rate ([11]; phase III, single agent versus dacarbazine): approximately 50% | IC50 ([5]; A-375, BRAFi- + MEKi-resistant (dabrafenib and trametinib combination-resistant) A375 population): 17.9 nM | IC50 ([5]; A-375, read-out: Relative IC50, Month 1, BVD-523-escalated line): 8 nM | IC50 ([5]; A-375, read-out: Relative IC50, Month 1, Dab/523-escalated line): 68 nM | IC50 ([5]; A-375, read-out: Relative IC50, Month 1, Dab/Tram-escalated line): 58 nM | IC50 ([5]; A-375, read-out: Relative IC50, Month 1, Tram-escalated line): 29 nM | IC50 ([5]; A-375, read-out: Relative IC50, Month 1, Tram/523-escalated line): 11 nM | IC50 ([5]; A-375, read-out: Relative IC50, Month 2, BVD-523-escalated line): 697 nM | IC50 ([5]; A-375, read-out: Relative IC50, Month 2, Dab-escalated line): 11.5 nM | IC50 ([5]; A-375, read-out: Relative IC50, Month 2, Dab/523-escalated line): 218 nM | IC50 ([5]; A-375, read-out: Relative IC50, Month 2, Dab/Tram-escalated line): 256 nM | IC50 ([5]; A-375, read-out: Relative IC50, Month 2, Tram/523-escalated line): 68 nM | IC50 ([5]; A-375, read-out: Relative IC50, Month 3, BVD-523-escalated line): 18.4 nM | IC50 ([5]; A-375, read-out: Relative IC50, Month 3, Dab-escalated line): 2.5 nM | IC50 ([5]; A-375, read-out: Relative IC50, Month 3, Dab/523-escalated line): 337 nM | IC50 ([5]; A-375, read-out: Relative IC50, Month 3, Dab/Tram-escalated line): 17.9 nM | IC50 ([5]; A-375, read-out: Relative IC50, Month 3, Tram/523-escalated line): 73 nM | TGI ([12]; 50 mg/kg BID): 22% | activity in patient-derived line ST052C ([12]; dabrafenib 50 mg/kg BID, BVD-523 100 mg/kg BID): acquired cross-resistance
